Experimental data from ChEMBL document CHEMBL1151125, “Constituents of Michelia Rajaniana. Two new germacranolide amides” (1988).

Tests used:
Type in all cases: functional
Conditions in all cases: read-out: ED50 (the source's name)
A549 = experiment: Cytotoxicity against human A549 cells
MCF7 = experiment: Cytotoxicity against human MCF7 cells
HT-29 = experiment: Cytotoxicity against human HT-29 cells

Measured: EC50

CC(=O)NC[C@@H]1C(=O)O[C@H]2[C@H]1[C@@H](O)C/C(C)=C/CC[C@@]1(C)O[C@@H]21
> 100 µg/mL: all assays above

CC(=O)NC[C@@H]1C(=O)O[C@H]2[C@H]1CC/C(C)=C/CC[C@@]1(C)O[C@@H]21
> 100 µg/mL: all assays above
